Consider three compounds from ChEMBL document CHEMBL4130412, “Characterization of the Degradation Profile of Umbelliprenin, a Bioactive Prenylated Coumarin of a Ferulago Species” (J Nat Prod, 2017).

What all share (type): physicochemical
The nature of data set [1]: Drug level treated with umbelliprenin under sunlight in EtOH solution after 6 days by 1H-NMR analysis. The note with it: 144 h.
Data set [2] is described as follows: Photochemical stability of the compound assessed as compound degradation under sunlight using solid samples measured up to 96 hrs by HPLC analysis. Particulars: read-out: Drug degradation.
Data set [3] in a line: Photochemical stability of the compound assessed as compound degradation under sunlight in EtOH solution measured after 24 hrs by HPLC analysis. Particulars: read-out: Drug degradation.
The nature of data set [4]: Photochemical stability of the compound assessed as compound degradation under 254 nm UV-light exposure using solid samples measured up to 96 hrs by HPLC analysis. Particulars: read-out: Drug degradation.
Data set [5] in a line: Photochemical stability of the compound assessed as compound degradation under sunlight in EtOH solution measured after 4 days by HPLC analysis. The note with it: read-out: Drug degradation.
Data set [6] in a line: Photochemical stability of the compound assessed as compound degradation under 254 nm UV-light exposure in EtOH solution measured after 24 hrs by HPLC analysis. The note with it: read-out: Drug degradation.
Data set [7] is described as follows: Photostability of the compound assessed as parent compound remaining under sunlight exposed for 3 days in EtOH solution measured in presence of UV-B filter octinoxate by TLC method. Particulars: read-out: Stability.
Data set [8] in a line: Thermal stability of the compound assessed as compound degradation at 37 degC in EtOH solution after 48 hrs by HPLC analysis. The note with it: read-out: Drug degradation.
Data set [9] can be described thus: Thermal stability of the compound at 40 degC in EtOH solution after 3 to 4 days by HPLC analysis.
Data set [10] can be described thus: Stability of the compound assessed as compound degradation in 0.1 M HCl solution at room temperature in EtOH solution after 96 hrs by HPLC analysis. Particulars: 0.1 M HCl solution in EtOH solution; read-out: Drug degradation.
Data set [11] in a line: Thermal stability of the compound assessed as compound degradation at 40 degC in EtOH solution after 48 hrs by HPLC analysis. The note with it: read-out: Drug degradation.
Data set [12] is described as follows: Stability of the compound assessed as compound degradation in 3% H2O2 solution at room temperature in EtOH solution after 24 hrs by HPLC analysis. The note with it: 3% H2O2 solution in EtOH solution; read-out: Drug degradation.
Data set [13] can be described thus: Stability of the compound assessed as compound degradation in 3% H2O2 solution at room temperature in EtOH solution after 96 hrs by HPLC analysis. Particulars: 3% H2O2 solution in EtOH solution; read-out: Drug degradation.
A short description of data set [14]: Photostability of the compound assessed as parent compound remaining under sunlight exposed for 6 days in EtOH solution measured in presence of UV-B filter octinoxate by TLC method. The note with it: read-out: Stability.
The nature of data set [15]: Thermal stability of the compound at 37 degC in EtOH solution after 3 to 4 days by HPLC analysis.
Data set [16] is described as follows: Stability of the compound assessed as compound degradation in 0.1 M NaOH solution at 60 to 80 degC using solid sample up to 96 hrs by HPLC analysis.
A short description of data set [17]: Photostability of the compound assessed as parent compound remaining under sunlight exposed for 6 days in EtOH solution measured by TLC method. Particulars: read-out: Stability.
Data set [18] can be described thus: Thermal stability of the compound assessed as compound degradation at 80 degC in EtOH solution measured up to 96 hrs by HPLC analysis. The note with it: read-out: Drug degradation.
A short description of data set [19]: Photostability of the compound assessed as parent compound remaining under sunlight exposed for 6 days in EtOH solution measured in presence of antioxidant DL-alpha-tocopherol acetate by TLC method. Particulars: read-out: Stability.
Data set [20] is described as follows: Stability of the compound assessed as compound degradation in 0.1 M HCl solution at 60 degC in EtOH solution after 24 hrs by HPLC analysis. Particulars: 0.1 M HCl solution in EtOH solution; read-out: Drug degradation.
Data set [21] is described as follows: Stability of the compound assessed as compound degradation in 0.1 M HCl solution at 60 to 80 degC using solid sample up to 96 hrs by HPLC analysis. Particulars: buffer.
Data set [22] in a line: Stability of the compound assessed as compound degradation in 3% H2O2 solution at 40 degC in EtOH solution after 96 hrs by HPLC analysis. The note with it: 3% H2O2 solution in EtOH solution; read-out: Drug degradation.
A short description of data set [23]: Stability of the compound assessed as compound degradation in 3% H2O2 solution at 40 degC in EtOH solution after 24 hrs by HPLC analysis. Particulars: 3% H2O2 solution in EtOH solution; read-out: Drug degradation.
Data set [24] in a line: Photostability of the compound assessed as parent compound remaining under sunlight exposed for 3 days in EtOH solution measured in presence of UV-A filter DHHB by TLC method. Particulars: read-out: Stability.
Data set [25] can be described thus: Photostability of the compound assessed as parent compound remaining under sunlight exposed for 3 days in EtOH solution measured in presence of antioxidant DL-alpha-tocopherol acetate by TLC method. Particulars: read-out: Stability.
Data set [26] is described as follows: Photostability of the compound assessed as parent compound remaining under sunlight exposed for 3 days in EtOH solution measured by TLC method. Particulars: read-out: Stability.
Data set [27] can be described thus: Photostability of the compound assessed as parent compound remaining under sunlight exposed for 3 days in EtOH solution measured in presence of UV-A filter avobenzone by TLC method. The note with it: read-out: Stability.
A short description of data set [28]: Photostability of the compound assessed as parent compound remaining under sunlight exposed for 6 days in EtOH solution measured in presence of UV-A filter avobenzone by TLC method. The note with it: read-out: Stability.
Data set [29] in a line: Photostability of the compound assessed as parent compound remaining under sunlight exposed for 6 days in EtOH solution measured in presence of UV-A filter DHHB by TLC method. The note with it: read-out: Stability.
Data set [30] in a line: Stability of the compound assessed as compound degradation in 0.1 M NaOH solution at room temperature in EtOH solution after 96 hrs by HPLC analysis. Particulars: 0.1 M NaOH solution in EtOH solution; read-out: Drug degradation.
Data set [31] in a line: Thermal stability of the compound assessed as compound degradation at 37 to 80 degC using solid samples after 96 hrs by HPLC analysis. The note with it: read-out: Drug degradation.
A short description of data set [32]: Stability of the compound assessed as compound degradation in 0.1 M NaOH solution at 60 degC in EtOH solution after 96 hrs by HPLC analysis. Particulars: 0.1 M NaOH solution in EtOH solution; read-out: Drug degradation.

The structures appear in SMILES notation.

As to `CC(C)=CCC/C(C)=C/CC/C(C)=C/COc1ccc2c(c1)OC(=O)[C@@H]1[C@@H]3C(=O)Oc4cc(OC/C=C(\C)CC/C=C(\C)CCC=C(C)C)ccc4[C@@H]3[C@H]21`, the Drug metabolism entry in [1] is reported as “Metabolite_Detected”.

Take `C/C1=C\COc2ccc3c(c2)OC(=O)C2C3C(CC/C(C)=C/CC1)C2(C)C` (stereo not drawn): in data set [1], the Drug metabolism entry is on record as “Metabolite_Detected”.

As for `CC(C)=CCC/C(C)=C/CC/C(C)=C/COc1ccc2ccc(=O)oc2c1` [UMBELLIPRENIN], the degraded at 96 h came to 64.7% in data set [2]; 59.4% in data set [4]; 91.6% in data set [5]; 22.2% in data set [10]; 41.6% in data set [13]; 34% in data set [18]. Besides, the degraded at 96 h is 50.1% in data set [22], 85% in data set [30], 54.6 to 65.1% in data set [31] and 85% in data set [32]. The degraded at 24 h in data set [3] was 70.4%; in [6], 25.8%; in [12] it was 19.1%; in data set [20] it was above 95%; in [23] it was 39.4%. Besides, the remaining at 72 h in data set [7] turned out to be 56%; in [24], 100%; in data set [25], 32%; in data set [26], 35%; in data set [27], 97%. Besides, the degraded at 48 h came out at 1.8% in data set [8] and 12.7% in [11]. The Stability entry in data set [9] was “Unstable”; in data set [15], “Unstable”; in data set [16], “Stable”; in data set [21], “Stable”. The remaining at 144 h in data set [14] turned out to be 13%; in data set [17] it was 9%; in data set [19], 10%; in data set [28] it was 88%; in data set [29] it was 98%.
